For 25 compounds, EC50 results are on record in ChEMBL document CHEMBL1765084, “Pyrimidine-2,4,6-trione derivatives and their inhibition of mutant SOD1-dependent protein aggregation. Toward a treatment for amyotrophic lateral sclerosis” (J Med Chem, 2011).

This assay relates to PC-12. As to the kind of experiment: Cytoprotection against SOD1 G93A mutant induced cytotoxicity in rat PC12 cells assessed as reduction of protein aggregates by fluorescent assay. The format is functional, cell-based.

pEC50: −log10 of the molar value.

Turning to `O=C1NC(=O)N(C2CCCCC2)C1=O`, the pEC50 (commonly −log10 of the EC50, conventionally taken in molar units) is below 4.49.
Take `O=C1CC(=O)N(CCc2cccs2)C(=O)N1CCc1ccc(F)cc1`: the pEC50 was 5.67.
For `O=C1CC(=O)N(CCc2ccccc2)C(=O)N1CCC1=CCCCC1`, the pEC50 was 5.76.
As to `Cc1cc(C=C2C(=O)N(CCc3ccccc3)C(=O)N(CCc3ccccc3)C2=O)c(C)n1-c1ccccc1`, the pEC50 is 6.06.
Turning to `O=C1CC(=O)N(CCCc2ccccc2)C(=O)N1CCCc1ccccc1`, the pEC50 is 5.88.
For the compound `O=C1CC(=O)N(CCc2cccs2)C(=O)N1CCc1ccccc1`, the pEC50 is 5.47.
As to `COc1ccc(C=C2C(=O)N(C3CCCCC3)C(=O)N(C3CCCCC3)C2=O)c(OC)c1`, the pEC50 is 5.59.
`O=C1C(=Cc2ccc[nH]2)C(=O)N(CCc2ccccc2)C(=O)N1CCc1ccccc1`: the pEC50 was 5.45.
As to `O=C1CC(=O)N(CCc2cccc(Cl)c2)C(=O)N1CCc1cccc(Cl)c1`, the negative logarithm of the EC50 (pEC50) is 5.53.
Then `COc1ccc(CCN2C(=O)CC(=O)N(CCc3ccc(OC)c(OC)c3)C2=O)cc1OC`, with 4.94; and `O=C1C(=O)N(C2CCCCC2)C(=O)N1C1CCCCC1`, with below 4.49.
Consider `O=C1CC(=O)N(CCc2ccc(Cl)cc2Cl)C(=O)N1CCc1ccc(Cl)cc1Cl`, for which the pEC50 was 5.73.
Turning to `CC1C(=O)N(CCc2ccccc2)C(=O)N(CCc2ccccc2)C1=O`, the negative-log EC50 (pEC50) is below 4.49.
As to `O=C1C(=CC2CCCCC2)C(=O)N(CCc2ccccc2)C(=O)N1CCc1ccccc1`, the negative logarithm of the EC50 (pEC50) was below 4.49.
Turning to `O=C1C(=Cc2ccc(OCc3ccccc3)cc2)C(=O)N(CCc2ccccc2)C(=O)N1CCc1ccccc1`, the negative-log EC50 (pEC50) is 5.55.
For `O=C1CC(=O)N(CCc2ccccc2F)C(=O)N1CCc1ccccc1F`, the pEC50 is 5.48.
In the case of `CCCCN1C(=O)CC(=O)NC1=O`, the pEC50 was below 4.49.
`O=C1CC(=O)N(CCC(c2ccccc2)c2ccccc2)C(=O)N1CCC(c1ccccc1)c1ccccc1`: the negative logarithm of the EC50 (pEC50) was 5.86.
As for `COc1ccc(CCN2C(=O)CC(=O)N(CCc3ccccc3)C2=O)cc1`, the pEC50 was 5.53.
As for `O=C1CC(=O)N(CC(c2ccccc2)c2ccccc2)C(=O)N1CCCCc1ccccc1`, the pEC50 was 5.44.
On to `CCCN1C(=O)CC(=O)N(CCC)C1=O`, for which the pEC50 is 5.11.
For `O=C1CC(=O)N(CCOc2ccccc2)C(=O)N1CCOc1ccccc1`, the pEC50 was 5.49.
`O=C1CC(=O)N(CCc2cccs2)C(=O)N1CCc1cccs1`: the negative-log EC50 (pEC50) was 5.67.
Under `O=c1cc(Cl)n(CCc2ccccc2)c(=O)n1CCc1ccccc1` stands below 4.49; under `O=C1CC(=O)N(CCc2ccc(F)cc2)C(=O)N1CCc1ccc(F)cc1`, 5.46.
